The values that follow come from paper PMC12472303 (2025).

Test [1] concerns Tel22 (DNA, G4) AGGGTTAGGGTTAGGGTTAGGG
Nature of the test: fluorimetric titration, SPECFIT. The settings on record: Na+ (sodium cacodylate, I = 0.1 M), pH 7.0, <0.1% DMSO.

Test [2] relates to poly rA-poly rU (RNA, polymer) A/U. Briefly: UV thermal melting at 260 nm. The settings on record: Na+ (sodium cacodylate, I = 0.05 M), pH 7.0, polynucleotide 20 µM nucleotide, r [compound]/[polynucleotide] = 0.3, error ±0.5 °C, per base.
The test system of test [3] is poly dAdT-poly dAdT (DNA, polymer) AT. Briefly: UV thermal melting at 260 nm. As to conditions: Na+ (sodium cacodylate, I = 0.05 M), pH 7.0, polynucleotide 20 µM nucleotide, r [compound]/[polynucleotide] = 0.3, error ±0.5 °C, per base.
For test [4] the test system is unchanged. Briefly: fluorimetric titration, Scatchard. The settings on record: Na+ (sodium cacodylate, I = 0.05 M), pH 7.0, per phosphate (nucleotide), n fixed at 0.2, <0.1% DMSO, per base.
The test system of test [5] is Tel22 (DNA, G4) AGGGTTAGGGTTAGGGTTAGGG
Briefly: UV thermal melting at 260 nm. As to conditions: Na+ (sodium cacodylate, I = 0.1 M), pH 7.0, Tel22 1–2 µM, r [compound]/[Tel22] = 4.

The test system of test [6] is poly dGdC-poly dGdC (DNA, polymer) GC. Nature of the test: fluorimetric titration, Scatchard. As to conditions: Na+ (sodium cacodylate, I = 0.05 M), pH 7.0, per phosphate (nucleotide), n fixed at 0.2, <0.1% DMSO, per base.
[7] abbreviates: Na-cacodylate buffer, concentration as oligonucleotide.

SMILES strings stand for the structures.

With `N=C(N)Nc1ccc(-c2c3nc(c(-c4ccccc4)c4ccc([nH]4)c(-c4ccccc4)c4nc(c(-c5ccccc5)c5ccc2[nH]5)C=C4)C=C3)cc1`, the “log K1” value in test [1] (Na-cacodylate, second step LG + G = LG2 log K2 5.07 ± 0.26) is on record as 7.23 ± 0.49 log K.
As for `N=C(N)Nc1ccc2c(c1)Cc1ccccc1-2`, the ΔTm was −1.0 °C in test [2] and 0 °C in test [3]. Further, the “log K1” value in test [1] (setting [7]) turned out to be 5.78 ± 0.08 log K.
For the compound `N=C(N)Nc1ccc2c3c(cccc13)-c1ccccc1-2`, the ΔTm entry was “+0.9 °C” in test [2] and 0 °C in test [3]. For the same compound, the “log K1” value in test [1] (setting [7]) was found to be 5.26 ± 0.13 log K.
Consider `N=C(N)Nc1ccc2ccccc2c1`, for which the ΔTm in test [2] and in test [3] was 0 °C throughout. Moreover, in test [1] (setting [7]), the “log K1” value was determined as 5.36 ± 0.07 log K. In addition, the “log Ks” value in test [4] was 4.17 log Ks. In addition, the binding result in test [5] was “weak”.
As for `NC(N)=Nc1cc2ccccc2c2ccccc12`, the values for the shift in melting temperature (ΔTm) entry in test [2] and in test [3] were “+1.3 °C” and “+0.9 °C”, respectively. In test [1] (setting [7]), the “log K1” value worked out at 5.61 ± 0.02 log K. Further, the “log Ks” value in test [4] turned out to be 6.27 log Ks; in test [6] it was 5.34 log Ks.

Broadly, the ΔTm is the shift of the melting midpoint relative to a reference.
